Assays:
α2-adrenoceptors [1] = assay: Binding assay, displacement of 1 nM 3H-RX821002 in rat neocortical membranes; conditions: ratio of affinities on rat neocortical α2- vs α1-adrenoceptors
Procedure: (§1) Affinities for α2-adrenoceptors and α1-adrenoceptors were estimated by determining the displacement of 1 nM ^3H-RX821002 (α2) or 0.1 nM ^3H-prazosin (α1) from α-adrenoceptors in rat neocortical membranes. For this purpose membranes were incubated with different concentrations of test compounds spanning a concentration range of five orders of magnitude. Nonspecific binding was defined with 10 μM phentolamine. Membranes were used at a protein concentration of 2 mg/ml in a total volume of 250 μl. The incubation buffer consisted of 50 mM TRIS-HCl, pH 7.7. After a 30 min incubation at 25° C. samples were filtered through glass fibre filter and filters were washed three times with 4 ml icecold wash buffer consisting of 10 mM TRIS-HCl, pH 7.7. Filters were then dried, impregnated with a scintillation cocktail and counted in a scintillation counter. Experimental data was analyzed using the commercial nonlinear least squares computer program LIGAND.
(§2) Each compound was tested in at least three independent experiments for its affinity on rat neocortical α2- or α1-adrenoceptors.

α2-adrenoceptors [2] = target: T1, α2-adrenoceptors; assay: as above; conditions: rat neocortical membranes, 1 nM 3H-RX821002, 30 min at 25° C., at least three independent experiments
T1 construct: pKi α2; other: rat neocortical membranes, 1 nM 3H-RX821002, 30 min at 25° C., at least three independent experiments
Procedure: as §1, §2

α1-adrenoceptors = assay: Binding assay, displacement of 0.1 nM 3H-prazosin in rat neocortical membranes; conditions: 30 min at 25° C., at least three independent experiments
Procedure: as §1, §2

In the case of Cc1cccc2c1CCC2c1c[nH]cn1.Cl (stereo not drawn) [Compound 1, 4-(4-Methylindan-1-yl)-1H-imidazole hydrochloride], the “alpha2 vs alpha1 selectivity” value (α2-adrenoceptors [1]) is reported as 14, the “pKi α2” value (α2-adrenoceptors [2]) is reported as 8.44 and the “pKi α1” value (α1-adrenoceptors) is reported as 7.31.

For Cl.Oc1ccc2c(c1)C(Cc1c[nH]cn1)CC2 (stereo not drawn) [Compound 2, 3-(1H-Imidazol-4-ylmethyl)-indan-5-ol hydrochloride], the “alpha2 vs alpha1 selectivity” value (α2-adrenoceptors [1]) was 126, the “pKi α2” value (α2-adrenoceptors [2]) was 8.70 and the “pKi α1” value (α1-adrenoceptors) was 6.61.

CC(c1c[nH]cn1)C1CCc2ccccc21.Cl (stereo not drawn) [Compound 3, 4-[1-(Indan-1-yl)-ethyl]-1H-imidazole hydrochloride] was tested, and the “alpha2 vs alpha1 selectivity” value (α2-adrenoceptors [1]) was 142, the “pKi α2” value (α2-adrenoceptors [2]) was 8.35 and the “pKi α1” value (α1-adrenoceptors) was 6.21.

With Cl.Oc1ccc2c(c1)C(Cc1c[nH]cn1)CCC2 (stereo not drawn) [Compound 4, 8-(1H-Imidazol-4-ylmethyl)-5,6,7,8-tetrahydronaphthalen-2-ol hydrochloride] the “alpha2 vs alpha1 selectivity” value (α2-adrenoceptors [1]) was 3, the “pKi α2” value (α2-adrenoceptors [2]) was 7.39 and the “pKi α1” value (α1-adrenoceptors) was 6.85.

With Cc1cccc([C@H](C)c2cnc[nH]2)c1C [Compound 5, dexmedetomidine, reference compound] the “alpha2 vs alpha1 selectivity” value (α2-adrenoceptors [1]) was 90, the “pKi α2” value (α2-adrenoceptors [2]) was 8.42 and the “pKi α1” value (α1-adrenoceptors) was 6.48.
